Entries after “also recorded” stand apart in the source; their conditions may differ.
Key:
[1] = molecular target: T1, full-length FKBP52 (GST fusion protein) (Homo sapiens, UniProt Q02790); assay: 3H-FK506 competition assay on bead-immobilized GST-FKBP52; format: binding; details: 10 nM FK506 with 3H-dihydro-FK506, 200-fold molar excess of cold ligand
T1 construct: GST-FKBP52 was constructed by PCR amplification of full-length FKBP52 from the pcDNA3 vector; made in house; host or cells: bacteria
T1 sequence (Q02790 1-459): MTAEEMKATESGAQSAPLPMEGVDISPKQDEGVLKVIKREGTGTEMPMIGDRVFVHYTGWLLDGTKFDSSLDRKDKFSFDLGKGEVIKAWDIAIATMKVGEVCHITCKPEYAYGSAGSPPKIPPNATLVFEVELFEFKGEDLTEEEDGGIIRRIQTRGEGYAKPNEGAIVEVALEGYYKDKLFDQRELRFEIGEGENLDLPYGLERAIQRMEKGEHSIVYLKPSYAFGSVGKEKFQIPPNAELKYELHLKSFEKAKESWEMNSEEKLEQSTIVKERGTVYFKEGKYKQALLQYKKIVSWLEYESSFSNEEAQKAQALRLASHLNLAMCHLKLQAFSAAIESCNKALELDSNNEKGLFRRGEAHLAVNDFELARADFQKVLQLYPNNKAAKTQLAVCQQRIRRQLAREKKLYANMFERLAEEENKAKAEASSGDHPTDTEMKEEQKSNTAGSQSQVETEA
Method: There was virtually no binding of GST alone to FKBP52 (not shown). […] Full-length FKBP52 was expressed as a GST fusion protein, purified over GSH-Sepharose resin. […] After extensive washing, the bound fraction (gray bars) was determined by liquid scintillation counting. […] Values are averages (with standard deviations) of three independent experiments.
Competition of […] binding to FKBP52 was carried out on GSH Sepharose beads from GST-FKBP52 expressed in bacteria. Briefly, GST-FKBP52 was constructed by PCR amplification of full-length FKBP52 from the pcDNA3 vector (Invitrogen, Carlsbad, Calif.), with FKBP52-specific primers flanked by EcORI/BamH1 restriction endonuclease sites. A 1.4-kb fragment was subsequently ligated into EcORI/BamH1, and digested with CIP-treated pGEX-6p to obtain a GST-fusion protein. The correct reading frame was verified by DNA sequencing. GST-FKBP52 fusion proteins were generated upon induction with 0.1 mM IPTG (from a 500-ml culture), and bacterial lysates were incubated with GSH Sepharose beads (Pharmacia, Peapack, N.J.) to collect FKBP52. Following several washes, first in bacterial lysis buffer and subsequently in PBS, the FKBP52 was over 90% pure, and was used for in vitro competition studies.

calcineurin = details: cited from earlier work
DRG explants = assay: DRG explant neurite outgrowth with anti-NGF neutralizing antibodies or MEK1 inhibitor; format: cell-based, C57B1/6 mice; details: DRGs cultured in 1 μM GM-284 plus inhibitor
Method: (A) DRGs were prepared and cultured as above, except that either the MEK1 inhibitor, PD 098059, or NGF-neutralizing antibodies were included in cultures treated with either NGF or GM-284. Maximal response was determined to be the extent of neurite outgrowth when DRGs were cultured in NGF alone (spotted bars) or in 1 μM GM-284 (striped bars). As indicated, DRGs were treated with either NGF or GM-284, in the presence of either 0.25 mg/ml anti-NGF neutralizing antibodies or PD 098059. […] DRGs were treated with 100 ng/ml NGF or 1 μM GM-284, for 30 min or 4 h, as indicated, and the detergent lysates were prepared and immunoblotted with anti-phospho-Erk monoclonal antibody. The p42 and p44 bands are indicated by arrowheads.
Explanted DRG ganglia were dissected from P1 to P3 C57B1/6 mice, as previously described (Weinstein et al., Targeted expression of an oncogenic adaptor protein v-Crk potentiates axonal growth in dorsal root ganglia and motor neurons in vivo. Brain Res. Dev. Brain Res., 116:29-39, 1999). Briefly, DRGs were dissected and placed in ice-cold PBS containing 2% glucose, then transferred onto polyornithine/laminin-coated tissue culture plates (Biocoat, Becton Dickinson Laboratories) in DMEM-plating medium overnight. The plating medium consisted of Dulbecco's minimal essential plating medium (DMEM) supplemented with 10% fetal calf serum (FCS; Hyclone), 0.6% glucose, 2 mM glutamine, 100 U/ml penicillin, 100 μg/ml streptomycin, and 20 mM HEPES. […] For experiments employing anti-NGF neutralizing antibodies, cultures were incubated with […] anti-NGF antiserum, and replaced every two days. Cultures were kept at 37° C., in 5% CO2, for up to 1 week, at which time the extent of well-defined neurite outgrowth was assessed.
Signaling by the neurotrophins, while mediated by different cell-surface receptors, converges on the extensively studied and well-characterized MAP kinase pathway. […] Therefore, the inventors explored the possibility that GM-284 might signal through NGF directly, or through the MAP kinase cascade. […]

In the case of CCC(C)(C)C(=O)C(=O)N1CCC[C@H]1c1nnc([C@@H]2CCCN2C(=O)C(=O)C(C)(C)CC)o1 [GM-284], the “competition for binding of 3H-FK506 to immobilized FKBP52” value [1] is listed as “bind to FKBP52 with similar affinities; also recorded: each ligand is able to compete for binding to the receptor; also recorded: competes with FK506 for binding to full-length FKBP52”, the “binding to / inhibition of calcineurin” value (calcineurin) is listed as “neither bind to, nor inhibit, calcineurin” and the “effect of anti-NGF / MEK1 inhibition on GM-284-mediated neurite outgrowth” value (DRG explants) is listed as “NGF- and MEK1-independent”.

Source: patent US20040266811A1, “Methods for inducing regeneration, remyelination, and hypermyelination of nervous tissue” (priority 2002, published 2004)
